ChEMBL document CHEMBL2417517, “Isolation, structures, and biological activities of triterpenoids from a Penares sp. marine sponge” (J Nat Prod, 2013)

Test system: HL-60
Assay: Cytotoxicity against human HL60 cells after 46 hrs by MTS assay
Format: functional, cell-based
Conditions: HL-60, 46 h

Q: For `CC(C)=CCC[C@@H](C)[C@H]1CC[C@]23C(=O)O[C@]4(CC[C@]12C)C3=CC[C@H]1C(C)(C)[C@@H](O)CC[C@@]14C`, which IC50 is on record?
A: The IC50 was 9.7 µM.
